Structures can show the parent of a compound that is named as a salt. Where two headings read alike, the source gives them in different places.
Tested on: PRKACA-PRKAR2A interaction (SmBiT-PRKACA / LgBiT-PRKAR2A), protein kinase A
Set-up: NanoLuc complementation counter-screen in cell extract, PRKACA with PRKAR2A, loss of luminescence, detects NanoLuc interference
Conditions: 0.5 h, 20 µM, inhibitor
[1] = counter-screen for NanoLuc interference

| Inh (PKA) [1] [%] | Structure (SMILES) | further results |
| --- | --- | --- |
| -0.219 | CCN[C@H]1CN(CCCOC)S(=O)(=O)c2sc(S(N)(=O)=O)cc21 [UM0118906:03, Brinzolamide] | – |
| -0.4651 | CCN[C@H]1C[C@H](C)S(=O)(=O)c2sc(S(N)(=O)=O)cc21 [UM0118923:03, Dorzolamide HCl] | – |
| – | O=P1(NCCCl)OCCCN1CCCl (centres unmarked) [UM0118931:03, Ifosfamide] | Inh (PKA): -0.3336% |
| -0.2471 | CS(=O)(=O)c1ccc([C@@H](O)[C@@H](CF)NC(=O)C(Cl)Cl)cc1 [UM0118980:03, Florfenicol] | – |
| 1.885 | Cc1c(OCC(F)(F)F)ccnc1C[S+]([O-])c1nc2ccccc2[nH]1 (centres unmarked) [UM0118982:03, Lansoprazole] | – |
| 2.726 | Cc1c(OCC(F)(F)F)ccnc1C[S@@+]([O-])c1nc2ccccc2[nH]1 [UM0118982:04, Dexlansoprazole] | – |
| 9.84 | CC(C)(Oc1ccc(C2CC2(Cl)Cl)cc1)C(=O)O (centres unmarked) [UM0119000:03, Ciprofibrate] | – |
| 2.691 | CCOC(=O)c1ccc(OC(=O)CCCCCNC(=N)N)cc1 [UM0119043:03, Gabexate mesylate] | – |
| 8.926 | Nc1ccc(O)c(C(=O)O)c1 [UM0119062:03, Mesalamine] | – |
| 1.858 | CC(C)(C(=O)c1cccnc1)c1cccnc1 [UM0119067:03, Metyrapone] | – |
| 21.46 | Cc1cccc(Nc2ccncc2S(=O)(=O)NC(=O)NC(C)C)c1 [UM0119116:03, Torsemide] | – |
| 17.48 | O=C(O[C@@H]1Cc2c(O)cc(O)cc2O[C@@H]1c1cc(O)c(O)c(O)c1)c1cc(O)c(O)c(O)c1 [UM0119174:03, (-)-Epigallocatechin gallate (EGCG)] | – |
| 40.47 | O=C1Cc2c([nH]c3ccc(Br)cc23)-c2ccccc2N1 [UM0119194:04, Kenpaullone] | – |
| 2.639 | O=c1oc2c(O)c(O)cc3c(=O)oc4c(O)c(O)cc1c4c23 [UM0119370:03, Ellagic acid] | – |
| -0.3481 | CCCCCCCCCCC[C@@H](C[C@@H]1OC(=O)[C@H]1CCCCCC)OC(=O)[C@H](CC(C)C)NC=O [UM0119382:03, Orlistat] | – |
| 48.27 | C=CCc1ccc(O)c(-c2ccc(O)c(CC=C)c2)c1 [UM0119411:03, Honokiol] | – |
| 34.9 | c1ccc2c(Cc3c[nH]c4ccccc34)c[nH]c2c1 [UM0119470:03, 3,3'-Diindolylmethane] | – |
| 1.275 | CC(=O)Oc1ccccc1C(=O)O [UM0119503:03, Aspirin (Acetylsalicylic acid)] | – |
| 1.097 | CC(=O)N[C@@H](CS)C(=O)O [UM0119535:03, Acetylcysteine] | – |
| 4.422 | COc1ccc(C(=O)N2CCCC2=O)cc1 [UM0119560:03, Aniracetam] | – |
| -0.9754 | NC(=O)c1ccccc1 [UM0119596:03, Benzamide] | – |
| 4.034 | O=C1CCc2cc(OCCCCc3nnnn3C3CCCCC3)ccc2N1 [UM0119639:03, Cilostazol] | – |

| Inh (PKA) [1] [%] | Structure (SMILES) | further results |
| --- | --- | --- |
| 2.512 | C[C@@](Cc1ccc(O)c(O)c1)(NN)C(=O)O [UM0119735:03, Carbidopa] | – |
| 1.983 | NCCc1ccc(O)c(O)c1 [UM0119875:03, Dopamine HCl] | – |
| – | NCCc1c[nH]cn1 [UM0119882:03, Histamine 2HCl] | Inh (PKA) (counter-screen for NanoLuc interference, Inh (PKA)): 0.5416% |
| 17.89 | O=S(=O)(c1cccc2c(I)cccc12)N1CCCNCC1 [UM0119920:03, ML-7 hydrochloride] | – |
| 40.28 | COc1ccc2c(c1)c(CC(=O)N1CCOCC1)c(C)n2C(=O)c1ccc(Cl)cc1 [UM0119946:02, BML-190] | – |
| 0.956 | Nc1nnc(-c2cccc(Cl)c2Cl)c(N)n1 [UM0119947:03, Lamotrigine] | – |
| 12.97 | COc1cc2c(cc1O)CC[C@@H]1[C@@H]2CC[C@]2(C)[C@@H](O)CC[C@@H]12 [UM0119979:04, 2-Methoxyestradiol (2-MeOE2)] | – |
| -0.2089 | NC(=O)c1ncn([C@@H]2O[C@H](CO)[C@@H](O)[C@H]2O)c1O [UM0119983:03, Mizoribine] | – |
| -0.9184 | CSC(=N)N [UM0119990:03, (S)-Methylisothiourea sulfate] | – |
| 2.182 | O=[N+]([O-])c1cccc2cn[nH]c12 [UM0120050:03, 7-Nitroindazole] | – |
| 18.59 | CC(C)N(CCC(=O)c1ccc2ccccc2c1)Cc1ccccc1 [UM0120052:04, ZM 39923 HCl] | – |
| 0.7851 | CNC[C@H](O)c1cccc(O)c1 [UM0120096:03, Phenylephrine HCl] | – |
| 13.75 | S=C(S)N1CCCC1 [UM0120164:03, Pyrrolidinedithiocarbamate ammonium] | – |
| -1.533 | NCCS(=O)(=O)O [UM0120232:03, Taurine] | – |
| 48.6 | N#CC(C#N)=Cc1ccc(O)c(O)c1 [UM0120250:03, AG-18] | – |
| 1.156 | Nc1nccs1 [UM0120610:02, Aminothiazole] | – |
| 1.741 | O=c1oc2cc(O)ccc2s1 [UM0120621:02, Tioxolone] | – |
| -0.7865 | N[C@@H](CCC(=O)N[C@@H](CS)C(=O)NCC(=O)O)C(=O)O [UM0120654:03, L-Glutathione Reduced] | – |
| -0.4526 | O=C(O)c1cc(O)c(O)c(O)c1 [UM0120666:03, Gallic acid] | – |
| 14.51 | Cc1cc(O)c2c(c1)C(=O)c1cccc(O)c1C2=O [UM0121046:03, Chrysophanol] | – |
| -0.3205 | CN(C)CCC[C@@]1(c2ccc(F)cc2)OCc2cc(C#N)ccc21 [UM0121246:02, Escitalopram Oxalate] | – |
| 6.005 | CCC(=O)NCC[C@@H]1CCc2ccc3c(c21)CCO3 [UM0121254:03, Ramelteon] | – |

| Inh (PKA) [1] [%] | Structure (SMILES) | further results |
| --- | --- | --- |
| -0.2371 | COc1ccnc(C[S+]([O-])c2nc3cc(OC(F)F)ccc3[nH]2)c1OC (centres unmarked) [UM0121277:03, Pantoprazole] | – |
| 16.21 | Cc1ccc(-c2cc(C(F)(F)F)nn2-c2ccc(S(N)(=O)=O)cc2)cc1 [UM0121289:03, Celecoxib] | – |
| 9.885 | Cc1onc(-c2ccccc2)c1-c1ccc(S(N)(=O)=O)cc1 [UM0121300:03, Valdecoxib] | – |
| 12.71 | CN(CCOc1ccc(CC2SC(=O)NC2=O)cc1)c1ccccn1 (centres unmarked) [UM0121306:03, Rosiglitazone] | – |
| -0.4605 | CN(C)CCc1c[nH]c2ccc(C[C@H]3COC(=O)N3)cc12 [UM0121308:03, Zolmitriptan] | – |
| -0.4329 | CCOC(=O)[C@H](CCc1ccccc1)N[C@H]1CCc2ccccc2N(CC(=O)O)C1=O [UM0121340:03, Benazepril HCl] | – |
| 0.6112 | CC[C@H]1OC(=O)[C@H](C)[C@@H](O[C@H]2C[C@@](C)(OC)[C@@H](O)[C@H](C)O2)[C@H](C)[C@@H](O[C@@H]2O[C@H](C)C[C@H](N(C)C)[C@H]2O)[C@](C)(O)C[C@@H](C)CN(C)[C@H](C)[C@@H](O)[C@]1(C)O [UM0121404:03, Azithromycin] | – |
| 0.9252 | CC[C@H]1OC(=O)[C@H](C)[C@@H](O[C@H]2C[C@@](C)(OC)[C@@H](O)[C@H](C)O2)[C@H](C)[C@@H](O[C@@H]2O[C@H](C)C[C@H](N(C)C)[C@H]2O)[C@](C)(OC)C[C@@H](C)C(=O)[C@H](C)[C@@H](O)[C@]1(C)O [UM0121462:03, Clarithromycin] | – |
| 3.854 | COC(=O)N[C@H](C(=O)N1CCC[C@H]1c1ncc(-c2ccc(-c3ccc(-c4cnc([C@@H]5CCCN5C(=O)[C@@H](NC(=O)OC)C(C)C)[nH]4)cc3)cc2)[nH]1)C(C)C [UM0125917:02, Daclatasvir (BMS-790052)] | – |
| 14.3 | O=c1cc(-c2cccc3c2Sc2ccccc2S3)oc(N2CCOCC2)c1 [UM0127803:03, KU 55933] | – |
| 19.2 | c1cc(-c2cnn3cc(-c4ccc(OCCN5CCCCC5)cc4)cnc23)ccn1 [UM0127814:02, Dorsomorphin] | – |
| 67.69 | CN(C)CCCn1cc(C2=C(c3c[nH]c4ccccc34)C(=O)NC2=O)c2ccccc21 [UM0127819:02, GF 109203X] | – |
| 37.52 | NC(=O)c1ccc(-c2nc(-c3ccc4c(c3)OCCO4)c(-c3ccccn3)[nH]2)cc1 [UM0127827:02, D4476] | – |
| 6.845 | COc1ccc(CNc2nc(N(CCO)CCO)nc3c2ncn3C(C)C)cc1 [UM0127838:02, CVT-313] | – |
| 1.354 | Nc1[nH]nc2nnc(-c3c(-c4ccccc4)nn4ccccc34)cc12 [UM0127848:03, FR 180204] | – |
| 19.65 | COc1ccc(C(=O)Nc2sc3c(c2C(N)=O)CCCC3)cc1OC [UM0127852:02, TCS 359] | – |
| 7.237 | COc1ccc(COc2ccc(Cc3cnc(N)nc3N)cc2OC)cc1 [UM0127855:02, GW2580] | – |
| 41.7 | Cn1sc(=O)n(Cc2ccccc2)c1=O [UM0127856:02, TDZD-8] | – |
| 66.01 | COc1ccc(CNC(=O)Nc2ncc([N+](=O)[O-])s2)cc1 [UM0127858:02, AR-A014418] | – |
| 24.46 | Nc1cccc(-c2cc3c(Oc4cccc(O)c4)ncnc3[nH]2)c1 [UM0127862:03, TWS119] | – |
| 49.99 | COc1ccc2c(c1)c(C1=C(c3c[nH]c4ccccc34)C(=O)NC1=O)cn2CCCN(C)C [UM0127865:02, Go 6983] | – |

| Structure (SMILES) | Inh (PKA) [1] [%] | further results |
| --- | --- | --- |
| Nc1ccncc1 [UM0119500:03, 4-Aminopyridine] | 0.4521 | – |
| CC(C)(C)c1cc(C=C(C#N)C#N)cc(C(C)(C)C)c1O [UM0120315:03, Tyrphostin 9] | 80.34 | – |
| O=C(O)CC(O)(CC(=O)O)C(=O)O [UM0121350:03, Lithium Citrate] | -1.116 | – |
| Oc1c(Cl)cc(Cl)c(Cl)c1Cc1c(O)c(Cl)cc(Cl)c1Cl [UM0121388:04, Hexachlorophene] | 52.78 | – |
| CC(C)(C)c1cc(C=C(C#N)C#N)cc(Br)c1O [UM0127805:02, AG-1024] | 81.26 | – |
| O=c1[nH]c2ccccc2n1C1CCN(Cc2ccc(-c3[nH]c4cc5ncnc5cc4nc3-c3ccccc3)cc2)CC1 [UM0127809:02, AKT inhibitor VIII] | 16.69 | – |

From PMC9995496, “A screen for MeCP2-TBL1 interaction inhibitors using a luminescence-based assay” (Scientific Reports, 2023)
